Here are results for 21 molecules from patent publication US20220024921A1, “1,3,4-OXADIAZOLONE COMPOUND AND PHARMACEUTICAL” (NIPPON SHINYAKU CO., LTD., priority 2018, published 2022).

In assay [1] the target is T1, PIM1 serine/threonine kinase (Homo sapiens, UniProt P11309).
T1 construct: purchased Carna Bioscience, Inc
Put plainly: PIM1 serine/threonine kinase inhibitory effect. It counts as biochemical. The note with it: PIM1 serine/threonine kinase activity; ATP 40 μM; 30° C., 30 minutes. Here is the method:
Each test substance was prepared to 10 mM with dimethylsulfoxide (DMSO), and further diluted with DMSO so as to have concentrations of 1000, 300, 100, 30, 10, 3, 1, 0.3, 0.1, 0.03, 0.01, and 0.001 μM. Moreover, each dilution was further diluted 33.3-fold with an assay buffer to prepare a test substance solution. The composition of the assay buffer was 50 mM HEPES (pH 7.0), 0.02% NaN3, 0.01% Bovine Serum Albumin, 0.1 mM Orthovanadate, 1 mM Dithiothreitol, and 5 mM MgCl2.
5 μL of each test substance solution was added to 384-well plates (n=2), and then 2.5 μL of a substrate solution (substrate 3-biotin (Cisbio Bioassays SAS), final concentration in the reaction solution: 0.5 μM) and 2.5 μL of an ATP solution (in the cases of PIM1, 2, 3, the final concentrations in the reaction solutions were 40, 2, and 10 μM, respectively) were added, 5 μL of each of PIM1, 2, 3 serine/threonine kinase solutions (Carna Bioscience, Inc., the final concentrations in the reaction solutions were 0.15, 1.6, and 0.25 μg/ml, respectively) was finally added, and the mixture was reacted at 30° C. for 30 minutes. The test substance concentrations in the reaction solutions are 10000, 3000, 1000, 300, 100, 30, 10, 3, 1, 0.3, 0.1, and 0.01 nM.
Thereafter, 15 μL of each detection solution (62.5 nM Streptavidin-XL665 (Cisbio Bioassays SAS), […] STK antibody-Cryptate (Cisbio Bioassays SAS), 50 mM HEPES (pH 7.0), 0.8 M KF, 0.1% Bovine Serum Albumin, 20 mM ethylenediaminetetraacetic acid) was added to each well. After stirring, the mixture was reacted at 30° C. for 1 hour. Absorbance (OD620, OD665) at 620 and 665 nm was measured with a microplate reader (SpectraMax M5e, Molecular Devices, LLC).
Non-linear regression analysis was performed by an SAS system (SAS Institute Inc.) using the ratio (OD665/OD620) of the measured absorbance to calculate a test substance concentration (IC50) that inhibits PIM1 serine/threonine kinase activity by 50%.

Assay [2] deals with PIM1 transgenic cells (Ba/F3) (Homo sapiens, UniProt P11309). Nature of the assay: Proliferation inhibitory effect on PIM1 transgenic cells. It counts as cell-based, mouse. The note with it: proliferation inhibition, 72 hours, Cell Counting Kit-8, read-out: PIM1 IC50. The text has this:
Human PIM1, 2, and 3 genes were inserted into the multi-cloning sites of retrovirus expression vectors pMYs-IRES-GFP, respectively, to prepare gene transfer vectors. Then, each gene transfer vector was introduced into packaging cells PLAT-E derived from a human fetal kidney cell line in the logarithmic growth phase, using a transfection reagent (FuGENE6, Promega Corporation). Since the culture supernatant of PLAT-E after gene transfer contained virus particles for gene transfer, the culture supernatant was collected and used as a medium for gene transfer. The medium for gene transfer was added to a plate coated with RetroNectin, and the plate was incubated to attach the virus particles to the plate. Then, a mouse pro-B cell line Ba/F3 in the logarithmic growth phase was seeded on the plate and infected with the virus to prepare PIM1, 2, or 3 transgenic cells that proliferate in a PIM 1, 2, or 3-dependent manner. The expression of PIM1, 2, or 3 protein in each cell was confirmed by Western blotting.
Each test substance was prepared to 10 mM with dimethylsulfoxide (DMSO), and diluted with DMSO so as to have concentrations of 3000, 1000, 300, 100, 30, 10, 3, and 1 μM. Moreover, each dilution was further diluted 10-fold with distilled water to prepare a test substance solution.
PIM1, 2, 3-expressing cells were seeded on a 96-well plate, and each test substance solution prepared the next day was added such that final concentrations were 10000, 3000, 1000, 300, 100, 30, 10, 3, and 1 nM. 72 hours after the addition, 10 μL of Cell Counting Kit-8 (DOJINDO LABORATORIES) was added to each well. After incubation for 1 to 4 hours, absorbance OD450 at 450 nm was measured. In addition, absorption OD650 at 650 nm as a reference wavelength was measured.
OD450-OD650 for each condition was calculated, and then the inhibition rates when OD450-OD650 of negative control (DMSO only) and OD450-OD650 of Blank (without cells) were set to 0% and 100%, respectively, were calculated. Then, non-linear regression analysis was performed for logarithmic dose and inhibition rate using a two-parameter logistic model to estimate IC50 values.
On the technique in general: Tetrazolium dyes change colour on reduction, which living cells bring about.

Counter-ions that a name gives are not always drawn.

Sequence of PIM1 transgenic cells (Ba/F3) (P11309 whole entry, stated change not applied): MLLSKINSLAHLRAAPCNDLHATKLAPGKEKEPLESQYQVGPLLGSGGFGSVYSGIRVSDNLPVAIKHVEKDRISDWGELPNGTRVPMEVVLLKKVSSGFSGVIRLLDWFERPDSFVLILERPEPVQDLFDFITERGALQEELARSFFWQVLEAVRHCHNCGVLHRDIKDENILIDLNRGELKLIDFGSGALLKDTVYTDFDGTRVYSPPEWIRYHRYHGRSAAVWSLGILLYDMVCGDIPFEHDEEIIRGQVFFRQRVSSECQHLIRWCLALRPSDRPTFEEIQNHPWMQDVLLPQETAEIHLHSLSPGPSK
T1 sequence (P11309 whole entry): as the sequence (P11309 whole entry, stated change not applied) above

`C[C@H](Nc1cc(-c2n[nH]c(=O)o2)cc(F)c1OC(F)F)C1CCNCC1` [Example 212, 5-[4-(difluoromethoxy)-3-fluoro-5-{[(1S)-1-(piperidin-4-yl)ethyl]amino}phenyl]-1,3,4-oxadiazol-2(3H)-one]: the concentration for half-maximal inhibition (IC50) in assay [1] came to 2.1 nM. Further, the GI50 in assay [2] came out at 73 nM. The molecule `NCc1ccc(-c2cc(-c3n[nH]c(=O)o3)ccc2C(F)(F)F)cc1` [Example 20, 5-[4′-(aminomethyl)-6-(trifluoromethyl)[1,1′-biphenyl]-3-yl]-1,3,4-oxadiazol-2(3H)-one hydrochloride] displayed a 50% inhibitory concentration (IC50) in assay [1] of 33 nM. The GI50 in assay [2] came out at 4500 nM.

As to `C[C@H](Nc1cc(-c2n[nH]c(=O)o2)cc(F)c1OC(F)F)C1(C)CCNCC1` [Example 213, 5-[4-(difluoromethoxy)-3-fluoro-5-{[(1S)-1-(4-methylpiperidin-4-yl)ethyl]amino}phenyl]-1,3,4-oxadiazol-2(3H)-one], in assay [1], the IC50 stood at 2 nM. Besides, the GI50 in assay [2] was 85 nM.

In assay [1], `CN[C@H]1C[C@@H]([C@H](C)Nc2cc(-c3n[nH]c(=O)o3)cc(F)c2C(F)(F)F)C1` [Example 203, 5-[3-fluoro-5-({(1S)-1-[(1s,3R)-3-(methylamino)cyclobutyl]ethyl}amino)-4-(trifluoromethyl)phenyl]-1,3,4-oxadiazol-2(3H)-one hydrochloride] displayed an IC50 of 3.6 nM. Besides, the GI50 in assay [2] worked out at 54 nM. In the same order, the values of `NC1CC2(C1)CC(Nc1cc(-c3n[nH]c(=O)o3)ccc1C(F)(F)F)C2` (centres unmarked) [Example 43, 5-{3-[(6-aminospiro[3.3]heptan-2-yl)amino]-4-(trifluoromethyl)phenyl}-1,3,4-oxadiazol-2(3H)-one hydrochloride] are 9.2 nM and 190 nM. In the same order, the values of `C[C@@H](C1CCNCC1)N1CCOc2c(F)cc(-c3n[nH]c(=O)o3)cc21` [Example 248, 5-{8-fluoro-4-[(1S)-1-(piperidin-4-yl)ethyl]-3,4-dihydro-2H-1,4-benzoxazin-6-yl}-1,3,4-oxadiazol-2(3H)-one] are 10 nM and 250 nM. As for `N[C@H]1CC[C@@H](CNc2cc(-c3n[nH]c(=O)o3)ccc2C(F)(F)F)CC1` [Example 74, 5-[3-({[(1s,4s)-4-aminocyclohexyl]methyl}amino)-4-(trifluoromethyl)phenyl]-1,3,4-oxadiazol-2(3H)-one hydrochloride], it took 2.2 nM to reach half-maximal inhibition in assay [1] (IC50). Also, in assay [2], the GI50 is 150 nM. On to `C[C@H](Nc1cc(-c2n[nH]c(=O)o2)ccc1C(F)(F)F)C1CC2(CCNCC2)C1` [Example 142, 5-[3-{[(1S)-1-(7-azaspiro[3.5]nonan-2-yl)ethyl]amino}-4-(trifluoromethyl)phenyl]-1,3,4-oxadiazol-2(3H)-one hydrochloride], for which 11 nM corresponded to half-maximal inhibition in assay [1] (IC50). Besides, the GI50 in assay [2] was 220 nM. In the same order, the values of `N[C@H]1CC[C@H](Nc2cc(-c3n[nH]c(=O)o3)ccc2Br)CC1` [Example 35, 5-(3-{[(1r,4r)-4-aminocyclohexyl]amino}-4-bromophenyl)-1,3,4-oxadiazol-2(3H)-one hydrochloride] are 4.9 nM and 510 nM.

In assay [1], `C[C@H]1CNCC[C@H]1CNc1cc(-c2n[nH]c(=O)o2)ccc1C(F)(F)F` [Example 141, 5-[3-({[(3R,4R)-3-methylpiperidin-4-yl]methyl}amino)-4-(trifluoromethyl)phenyl]-1,3,4-oxadiazol-2(3H)-one hydrochloride] had a half-inhibitory concentration (IC50) of 7.1 nM. For the same molecule, the GI50 in assay [2] turned out to be 250 nM.

Turning to `O=c1[nH]nc(-c2cc(NCC3(F)CCNCC3)c3cn[nH]c3c2)o1` [Example 116, 5-(4-{[(4-fluoropiperidin-4-yl)methyl]amino}-1H-indazol-6-yl)-1,3,4-oxadiazol-2(3H)-one hydrochloride], the IC50 in assay [1] was 4.3 nM. Further, the GI50 in assay [2] was determined as 4200 nM. In the same order, the values of `C[C@H](Nc1cc(-c2n[nH]c(=O)o2)cc(F)c1Cl)[C@H]1C[C@@H](N)C1` [Example 178, 5-[3-({(1S)-1-[(1s,3R)-3-aminocyclobutyl]ethyl}amino)-4-chloro-5-fluorophenyl]-1,3,4-oxadiazol-2(3H)-one hydrochloride] are 3.2 nM and 34 nM. In the same order, the values of `Cc1c(Cl)cc(-c2n[nH]c(=O)o2)cc1N[C@@H](C)C1CCNCC1` [Example 98, 5-(3-chloro-4-methyl-5-{[(1S)-1-(piperidin-4-yl)ethyl]amino}phenyl)-1,3,4-oxadiazol-2(3H)-one dihydrochloride] are 2 nM and 79 nM. In the same order, the values of `NCC[C@H]1CC[C@H](Nc2cc(-c3n[nH]c(=O)o3)ccc2C(F)(F)F)CC1` [Example 44, 5-[3-{[(1r,4r)-4-(2-aminoethyl)cyclohexyl]amino}-4-(trifluoromethyl)phenyl]-1,3,4-oxadiazol-2(3H)-one hydrochloride] are 4.2 nM and 330 nM. Turning to `O=c1[nH]nc(-c2ccc(Br)c(OCC3CCNCC3)c2)o1` [Example 235, 5-{4-bromo-3-[(piperidin-4-yl)methoxy]phenyl}-1,3,4-oxadiazol-2(3H)-one], in assay [1], 7.7 nM corresponded to half-maximal inhibition (IC50). Besides, the GI50 in assay [2] was determined as 650 nM. On to `C[C@H](Nc1cc(-c2n[nH]c(=O)o2)cc(N)c1Cl)C1CCNCC1` [Example 92, 5-(3-amino-4-chloro-5-{[(1S)-1-(piperidin-4-yl)ethyl]amino}phenyl)-1,3,4-oxadiazol-2(3H)-one dihydrochloride], for which the half-maximal inhibitory concentration (IC50) in assay [1] came out at 2.6 nM. The GI50 in assay [2] was 280 nM. Molecule `O=c1[nH]nc(-c2ccc(C(F)(F)F)c(NC[C@@H]3C[C@H]4CC[C@@H](C3)N4)c2)o1` [Example 135, 5-[3-({[(1R,3s,5S)-8-azabicyclo[3.2.1]octan-3-yl]methyl}amino)-4-(trifluoromethyl)phenyl]-1,3,4-oxadiazol-2(3H)-one hydrochloride] showed an IC50 in assay [1] of 29 nM. Moreover, the GI50 in assay [2] worked out at 3500 nM. In the same order, the values of `N[C@H]1CC[C@@H](Nc2cc(-c3n[nH]c(=O)o3)ccc2Cl)CC1` [Example 33, 5-(3-{[(1s,4s)-4-aminocyclohexyl]amino}-4-chlorophenyl)-1,3,4-oxadiazol-2(3H)-one hydrochloride] are 6.2 nM and 730 nM. Molecule `C[C@H](Nc1cc(Cl)cc(-c2n[nH]c(=O)o2)c1)C1CCNCC1` [Example 105, 5-(3-chloro-5-{[(1S)-1-(piperidin-4-yl)ethyl]amino}phenyl)-1,3,4-oxadiazol-2(3H)-one dihydrochloride] came in with a concentration for half-maximal inhibition (IC50) in assay [1] of 12 nM. The GI50 in assay [2] is 550 nM.

In assay [1], `C[C@H](Nc1cc(-c2n[nH]c(=O)o2)cc(F)c1C(F)(F)F)C1(C)CCNCC1` [Example 206, 5-[3-fluoro-5-{[(1S)-1-(4-methylpiperidin-4-yl)ethyl]amino}-4-(trifluoromethyl)phenyl]-1,3,4-oxadiazol-2(3H)-one] gave an IC50 of 1.7 nM. For the same molecule, in assay [2], the GI50 was determined as 32 nM. As to `C[C@H](Nc1cc(-c2n[nH]c(=O)o2)ccc1C(F)(F)F)C12CC(N)(C1)C2` [Example 185, 5-[3-{[(1S)-1-(3-aminobicyclo[1.1.1]pentan-1-yl)ethyl]amino}-4-(trifluoromethyl)phenyl]-1,3,4-oxadiazol-2(3H)-one], the GI50 in assay [2] was found to be 87 nM.

One may read the IC50 as the point on the concentration scale where inhibition reaches its midpoint. Read a low IC50 as greater potency in that assay.
